How the values were obtained:
Type in all cases: in vivo
[1] = system: blackgrass (Alopecurus myosuroides); test: Test C preemergence, blackgrass; conditions: 0 is no effect, 100 is complete control
Source text: (§1) Seeds of plant species selected from blackgrass (Alopecurus myosuroides), corn (Zea mays), foxtail, giant (giant foxtail, Setaria faberi), goosegrass (Eleusine indica), kochia (Bassia scoparia), oat, wild (wild oat, Avena fatua), pigweed, palmer (palmer amaranth, Amaranthus palmeri), ragweed (common ragweed, Ambrosia artemisiifolia), ryegrass, Italian (Italian ryegrass, Lolium multiflorum), soybean (Glycine max) and wheat (Triticum aestivum) were planted into a blend of loam soil and sand and treated preemergence with a directed soil spray using test chemicals formulated in a non-phytotoxic solvent mixture which included a surfactant.
(§2) At the same time, plants selected from these crop and weed species and also galium (catchweed bedstraw, Galium aparine) and horseweed (Erigeron canadensis) were planted in pots containing the same blend of loam soil and sand and treated with postemergence applications of test chemicals formulated in the same manner. Plants ranged in height from 2 to 10 cm and were in the one- to two-leaf stage for the postemergence treatment. Treated plants and untreated controls were maintained in a greenhouse for 10 or 12 days, after which time all treated plants were compared to untreated controls and visually evaluated for injury. Plant response ratings, summarized in Table A, are based on a 0 to 100 scale where 0 is no effect and 100 is complete control. A dash (-) response means no test result.

[2] = system: corn (Zea mays); test: Test C preemergence, corn; conditions: 0 is no effect, 100 is complete control
Source text: as §1, §2

[3] = system: foxtail, giant (giant foxtail, Setaria faberi); test: Test C preemergence, giant foxtail; conditions: 0 is no effect, 100 is complete control
Source text: as §1, §2

[4] = system: goosegrass (Eleusine indica); test: Test C preemergence, goosegrass; conditions: 0 is no effect, 100 is complete control
Source text: as §1, §2

[5] = system: kochia (Bassia scoparia); test: Test C preemergence, kochia; conditions: 0 is no effect, 100 is complete control
Source text: as §1, §2

[6] = system: oat, wild (wild oat, Avena fatua); test: Test C preemergence, wild oat; conditions: 0 is no effect, 100 is complete control
Source text: as §1, §2

[7] = system: pigweed, palmer (palmer amaranth, Amaranthus palmeri); test: Test C preemergence, palmer amaranth; conditions: 0 is no effect, 100 is complete control
Source text: as §1, §2

[8] = system: ragweed (common ragweed, Ambrosia artemisiifolia); test: Test C preemergence, ragweed; conditions: 0 is no effect, 100 is complete control
Source text: as §1, §2

[9] = system: ryegrass, Italian (Italian ryegrass, Lolium multiflorum); test: Test C preemergence, Italian ryegrass; conditions: 0 is no effect, 100 is complete control
Source text: as §1, §2

[10] = system: soybean (Glycine max); test: Test C preemergence, soybean; conditions: 0 is no effect, 100 is complete control
Source text: as §1, §2

[11] = system: wheat (Triticum aestivum); test: Test C preemergence, wheat; conditions: 0 is no effect, 100 is complete control
Source text: as §1, §2

[12] = system: blackgrass (Alopecurus myosuroides); test: Test C postemergence, blackgrass; conditions: 31 g ai/ha Postemergence; visual injury, 0 to 100 scale (0 no effect, 100 complete control)
Source text: as §1, §2

[13] = system: corn (Zea mays); test: Test C postemergence, corn
Source text: as §1, §2

[14] = system: foxtail, giant (giant foxtail, Setaria faberi); test: Test C postemergence, giant foxtail
Source text: as §1, §2

[15] = system: goosegrass (Eleusine indica); test: Test C postemergence, goosegrass
Source text: as §1, §2

[16] = system: kochia (Bassia scoparia); test: Test C postemergence, kochia
Source text: as §1, §2

[17] = system: oat, wild (wild oat, Avena fatua); test: Test C postemergence, wild oat
Source text: as §1, §2

[18] = system: pigweed, palmer (palmer amaranth, Amaranthus palmeri); test: Test C postemergence, palmer amaranth; conditions: visual injury, 0 to 100 scale (0 no effect, 100 complete control)
Source text: as §1, §2

[19] = system: ragweed (common ragweed, Ambrosia artemisiifolia); test: Test C postemergence, ragweed; conditions: visual injury, 0 to 100 scale (0 no effect, 100 complete control)
Source text: as §1, §2

[20] = system: ryegrass, Italian (Italian ryegrass, Lolium multiflorum); test: Test C postemergence, Italian ryegrass; conditions: visual injury, 0 to 100 scale (0 no effect, 100 complete control)
Source text: as §1, §2

[21] = system: soybean (Glycine max); test: Test C postemergence, soybean; conditions: visual injury, 0 to 100 scale (0 no effect, 100 complete control)
Source text: as §1, §2

[22] = system: wheat (Triticum aestivum); test: Test C postemergence, wheat; conditions: visual injury, 0 to 100 scale (0 no effect, 100 complete control)
Source text: as §1, §2

[23] = system: galium (catchweed bedstraw, Galium aparine); test: Test C postemergence, galium
Source text: as §1, §2

[24] = system: horseweed (Erigeron canadensis); test: Test C postemergence, horseweed
Source text: as §1, §2

[25] = system: barnyardgrass (Echinochloa crusgalli); test: Test D flooded paddy test, barnyardgrass; parameters: key: 0 = no effect, 100 = complete control; conditions: 250 g ai/ha, Flood; applied to paddy water at 2-leaf stage; visual rating after 13 days; scale 0 (no effect) to 100 (complete control)
Description: (§3) Plant species in the flooded paddy test selected from barnyardgrass (Echinochloa crusgalli), ducksalad (Heteranthera limosa), rice (Oryza sativa), and sedge, umbrella (small-flower umbrella sedge, Cyperus difformis) were grown to the 2-leaf stage for testing. At time of treatment, test pots were flooded to 3 cm above the soil surface, treated by application of test compounds directly to the paddy water, and then maintained at that water depth for the duration of the test. Treated plants and controls were maintained in a greenhouse for 13 days, after which time all species were compared to controls and visually evaluated. Plant response ratings, summarized in Table B, are based on a scale of 0 to 100 where 0 is no effect and 100 is complete control. A dash (-) response means no test result.

[26] = system: ducksalad (Heteranthera limosa); test: Test D flooded paddy test, ducksalad; parameters: key: 0 = no effect, 100 = complete control; conditions: 250 g ai/ha, Flood; applied to paddy water at 2-leaf stage; visual rating after 13 days; scale 0 (no effect) to 100 (complete control)
Description: as §3

[27] = system: rice (Oryza sativa); test: Test D flooded paddy test, rice; parameters: key: 0 = no effect, 100 = complete control; conditions: 250 g ai/ha, Flood; applied to paddy water at 2-leaf stage; visual rating after 13 days; scale 0 (no effect) to 100 (complete control)
Description: as §3

[28] = system: sedge, umbrella (small-flower umbrella sedge, Cyperus difformis); test: Test D flooded paddy test, umbrella sedge; parameters: key: 0 = no effect, 100 = complete control; conditions: 250 g ai/ha, Flood; applied to paddy water at 2-leaf stage; visual rating after 13 days; scale 0 (no effect) to 100 (complete control)
Description: as §3

[29] = system: blackgrass (Alopecurus myosuroides); test: Test C postemergence, blackgrass; conditions: 125 g ai/ha Postemergence; 0 is no effect, 100 is complete control
[30] = 31 g ai/ha Postemergence, visual injury, 0 to 100 scale (0 no effect, 100 complete control)
[31] = 125 g ai/ha Postemergence, 0 is no effect, 100 is complete control

Cc1cc(Cl)c(N(COC(=O)C(C)(C)C)S(=O)(=O)C(F)(F)F)cc1N1CCC(OC2CC2)C1=O (stereo not shown) [Compound 33]
Plant response rating (0 to 100 scale), Blackgrass ([1]; 31 g ai/ha Preemergence): 20
Plant response rating (0 to 100 scale), Blackgrass ([1]; 125 g ai/ha Preemergence): 80
Plant response rating (0 to 100 scale), Corn ([2]; 31 g ai/ha Preemergence): 30
Plant response rating (0 to 100 scale), Corn ([2]; 125 g ai/ha Preemergence): 60
Plant response rating (0 to 100 scale), Foxtail, Giant ([3]; 31 g ai/ha Preemergence): 70
Plant response rating (0 to 100 scale), Foxtail, Giant ([3]; 125 g ai/ha Preemergence): 100
Plant response rating (0 to 100 scale), Goosegrass ([4]; 31 g ai/ha Preemergence): 90
Plant response rating (0 to 100 scale), Goosegrass ([4]; 125 g ai/ha Preemergence): 100
Plant response rating (0 to 100 scale), Kochia ([5]; 31 g ai/ha Preemergence): 100
Plant response rating (0 to 100 scale), Kochia ([5]; 125 g ai/ha Preemergence): 100
Plant response rating (0 to 100 scale), Oat, Wild ([6]; 31 g ai/ha Preemergence): 10
Plant response rating (0 to 100 scale), Oat, Wild ([6]; 125 g ai/ha Preemergence): 50
Plant response rating (0 to 100 scale), Pigweed, Palmer ([7]; 31 g ai/ha Preemergence): 70
Plant response rating (0 to 100 scale), Pigweed, Palmer ([7]; 125 g ai/ha Preemergence): 80
Plant response rating (0 to 100 scale), Ragweed ([8]; 31 g ai/ha Preemergence): 30
Plant response rating (0 to 100 scale), Ragweed ([8]; 125 g ai/ha Preemergence): 80
Plant response rating (0 to 100 scale), Ryegrass, Italian ([9]; 31 g ai/ha Preemergence): 20
Plant response rating (0 to 100 scale), Ryegrass, Italian ([9]; 125 g ai/ha Preemergence): 100
Plant response rating (0 to 100 scale), Soybean ([10]; 31 g ai/ha Preemergence): 0
Plant response rating (0 to 100 scale), Soybean ([10]; 125 g ai/ha Preemergence): 60
Plant response rating (0 to 100 scale), Wheat ([11]; 31 g ai/ha Preemergence): 10
Plant response rating (0 to 100 scale), Wheat ([11]; 125 g ai/ha Preemergence): 40
Blackgrass plant response rating [12]: 0
Corn plant response rating [13, 30]: 80
Plant response rating (0 to 100 scale), Corn [13, 31]: 90
Foxtail, Giant plant response rating [14, 30]: 50
Plant response rating (0 to 100 scale), Foxtail, Giant [14, 31]: 90
Goosegrass plant response rating [15, 30]: 60
Plant response rating (0 to 100 scale), Goosegrass [15, 31]: 90
Kochia plant response rating [16, 30]: 80
Plant response rating (0 to 100 scale), Kochia [16, 31]: 90
Oat, Wild plant response rating [17, 30]: 30
Plant response rating (0 to 100 scale), Oat, Wild [17, 31]: 70
Pigweed, Palmer plant response rating ([18]; 31 g ai/ha Postemergence): 20
Pigweed, Palmer plant response rating ([18]; 125 g ai/ha Postemergence): 80
Ragweed plant response rating ([19]; 31 g ai/ha Postemergence): 90
Ragweed plant response rating ([19]; 125 g ai/ha Postemergence): 90
Ryegrass, Italian plant response rating ([20]; 31 g ai/ha Postemergence): 20
Ryegrass, Italian plant response rating ([20]; 125 g ai/ha Postemergence): 90
Soybean plant response rating ([21]; 31 g ai/ha Postemergence): 80
Soybean plant response rating ([21]; 125 g ai/ha Postemergence): 100
Wheat plant response rating ([22]; 31 g ai/ha Postemergence): 50
Wheat plant response rating ([22]; 125 g ai/ha Postemergence): 70
Galium plant response rating [23, 30]: 100
Plant response rating (0 to 100 scale), Galium [23, 31]: 100
Horseweed plant response rating [24, 30]: 70
Plant response rating (0 to 100 scale), Horseweed [24, 31]: 100
Plant response rating, Barnyardgrass [25]: 90
Plant response rating, Ducksalad [26]: 80
Plant response rating, Rice [27]: 45
Plant response rating, Sedge, Umbrella [28]: 90
Plant response rating (0 to 100 scale), Blackgrass [29]: 60
